Results on 15 compounds are retold here after patent US20250197420A1, “MACROCYCLIC COMPOUNDS, COMPOSITIONS, AND METHODS OF USING THEREOF” (Sionna Therapeutics Inc., priority 2022, published 2025).

For data set [1] the following is noted: amide bond; 19-membered ring; with chain assembly.
For data set [2], the target named is T1, Purified recombinant NBD1 (Homo sapiens, UniProt P13569).
T1 construct: Purified recombinant NBD1 was produced using previously described methods; made in house
Briefly: Aggregation analysis using differential static light scattering (DSLS): thermal stability of NBD1. The data set is classed as binding. The note with it: NBD1 0.2 mg/ml; Tagg of compound well minus average Tagg of DMSO control wells. Summed up: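 Recombinant NBD1 at 0.2 mg/ml in Tris/NaCl/MgCl2 buffer with 2 mM ATP, 2 mM DTT, 1% glycerol, pH 7.6, was incubated with compound and heated at 1 °C/min to 70 °C while static light scattering was monitored. Tagg was taken from the curve inflection point and reported as ΔTagg relative to DMSO controls.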

The subject of data set [3] is Primary human bronchial epithelial cells from a ΔF508 homozygous CF donor (CF-HBE cells). Briefly: TECC24 recording of CFTR-mediated transepithelial chloride transport, AUC fold over benchmark VX-809 @10 μM. The data set is classed as cell-based. The settings on record: 48 hours incubation, AUC of forskolin-stimulated IEQ. The method, boiled down:
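CF-HBE cells on inserts were treated with compound for 48 h at 36.5 °C, then recorded in current-clamp with benzamil 10 μM, forskolin 10 μM, and finally CFTR inhibitor-172 20 μM in pH 7.4 Hepes saline. Equivalent Cl− current AUC between forskolin and inhibitor addition is expressed as a ratio to VX-809 AUC: A <3, B 3–6, C 6–20.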

T1 sequence (P13569 423-646 limits assumed): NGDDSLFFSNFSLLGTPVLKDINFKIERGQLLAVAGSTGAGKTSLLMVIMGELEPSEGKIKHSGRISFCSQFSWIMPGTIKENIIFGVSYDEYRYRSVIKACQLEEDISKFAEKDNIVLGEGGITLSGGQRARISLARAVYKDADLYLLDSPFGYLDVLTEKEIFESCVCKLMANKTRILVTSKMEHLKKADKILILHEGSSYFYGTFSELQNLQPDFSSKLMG

With `Cc1ccc(S(=O)(=O)n2ccc3c4c(c(F)cc32)Oc2ccnc(c2)-c2nc(nn2C)[C@@](C)(c2cccc(I)c2)CCCCC(C)(C)CN(C)C(=O)C4)cc1`, the ring closure, isolated yield in data set [1] is 35%. As for `CC1(c2cccc(CCC(=O)O)c2)CCCCCC(=O)NCC(O)Cc2c(c(F)cc3[nH]ccc23)Oc2ccc(F)c(c2)-c2ncc1[nH]2` (centres unmarked) [Compound 110, 3-[3-(24,30-Difluoro-15-hydroxy-6-methyl-12-oxo-26-oxa-3,13,21,32-tetrazapentacyclo[25.3.1.12,5.017,25.018,22]dotriaconta-1(31),2,4,17,19,22,24,27,29-nonaen-6-yl)phenyl]propanoic acid], the “DSLS (ΔTagg)” value in data set [2] was “C (a value greater than 10 °C and less than or equal to 25 °C is marked “C”)”. The “TECC (test agent AUC divided by VX-809 AUC)” value in data set [3] was “B (a value between 3 and 6 is marked “B”)”. In the case of `CC1(c2cccc(CCC(=O)O)c2)CCCCCC(=O)NCC(=O)Cc2c(c(F)cc3[nH]ccc23)Oc2ccc(F)c(c2)-c2ncc1[nH]2` (centres unmarked) [Compound 111, 3-[3-(24,30-Difluoro-6-methyl-12,15-dioxo-26-oxa-3,13,21,32-tetrazapentacyclo[25.3.1.12,5.017,25.018,22]dotriaconta-1(31),2,4,17,19,22,24,27,29-nonaen-6-yl)phenyl]propanoic acid], the “DSLS (ΔTagg)” value in data set [2] is “C (a value greater than 10 °C and less than or equal to 25 °C is marked “C”)”. Further, in data set [3], the “TECC (test agent AUC divided by VX-809 AUC)” value was “C (a value between 6 and 20 is marked “C”)”.

For the compound `CN1CC(O)CCCCCC(C)(c2cccc(CCC(=O)O)c2)c2cnc([nH]2)-c2cc(ccc2F)Oc2c(F)cc3[nH]ccc3c2CC1=O` (centres unmarked) [Compound 112, 3-[3-(24,30-Difluoro-12-hydroxy-6,14-dimethyl-15-oxo-26-oxa-3,14,21,32-tetrazapentacyclo[25.3.1.12,5.017,25.018,22]dotriaconta-1(30),2,4,17(25),18(22),19,23,27(31),28-nonaen-6-yl)phenyl]propanoic acid], the “DSLS (ΔTagg)” value in data set [2] was “C (a value greater than 10 °C and less than or equal to 25 °C is marked “C”)”. Besides, the “TECC (test agent AUC divided by VX-809 AUC)” value in data set [3] is “B (a value between 3 and 6 is marked “B”)”. Turning to `CN1CC(=O)CCCCCC(C)(c2cccc(CCC(=O)O)c2)c2cnc([nH]2)-c2cc(ccc2F)Oc2c(F)cc3[nH]ccc3c2CC1=O` (centres unmarked) [Compound 113, 3-[3-(24,30-Difluoro-6,14-dimethyl-12,15-dioxo-26-oxa-3,14,21,32-tetrazapentacyclo[25.3.1.12,5.017,25.018,22]dotriaconta-1(30),2,4,17(25),18(22),19,23,27(31),28-nonaen-6-yl)phenyl]propanoic acid], in data set [2], the “DSLS (ΔTagg)” value is “C (a value greater than 10 °C and less than or equal to 25 °C is marked “C”)”. The “TECC (test agent AUC divided by VX-809 AUC)” value in data set [3] is recorded as “A (a TECC value less than 3 is marked “A”)”.

As for `CC(Cc1cccc(C2(C)CCCCS(=O)(=O)NC(=O)CCc3c(c(F)cc4[nH]ccc34)Oc3ccc(F)c(c3)-c3nc2nn3C)c1)C(=O)O` (centres unmarked) [Compound 114, 3-[3-(23,29-Difluoro-3,6-dimethyl-11,11,13-trioxo-25-oxa-11λ6-thia-3,4,12,20,31-pentazapentacyclo[24.3.1.12,5.016,24.017,21]hentriaconta-1(30),2(31),4,16,18,21,23,26,28-nonaen-6-yl)phenyl]-2-methyl-propanoic acid], the “DSLS (ΔTagg)” value in data set [2] is “C (a value greater than 10 °C and less than or equal to 25 °C is marked “C”)”. Also, the “TECC (test agent AUC divided by VX-809 AUC)” value in data set [3] is on record as “A (a TECC value less than 3 is marked “A”)”. As for `Cn1nc2nc1-c1cc(ccc1F)Oc1c(F)cc3[nH]ccc3c1CCC(=O)NS(=O)(=O)CCCCC2(C)c1ccccc1` (centres unmarked) [Compound 115], the “DSLS (ΔTagg)” value in data set [2] is “C (a value greater than 10 °C and less than or equal to 25 °C is marked “C”)”. Moreover, the “TECC (test agent AUC divided by VX-809 AUC)” value in data set [3] is on record as “A (a TECC value less than 3 is marked “A”)”. For the compound `C[C@@H](Cc1cccc(C2(C)CCCC(C)(C)NS(=O)(=O)CCc3c(c(F)cc4[nH]ccc34)Oc3ccc(F)c(c3)-c3nc2nn3C)c1)C(=O)O` (stereo partly drawn) [Compound 116, (2S)-3-[3-(22,28-difluoro-3,6,10,10-tetramethyl-12,12-dioxo-24-oxa-12λ6-thia-3,4,11,19,30-pentazapentacyclo[23.3.1.12,5.015,23.016,20]triaconta-1(29),2(30),4,15,17,20,22,25,27-nonaen-6-yl)phenyl]-2-methyl-propanoic acid], in data set [2], the “DSLS (ΔTagg)” value is “C (a value greater than 10 °C and less than or equal to 25 °C is marked “C”)”. In data set [3], the “TECC (test agent AUC divided by VX-809 AUC)” value was “B (a value between 3 and 6 is marked “B”)”. `C[C@@H](Cc1cccc([C@@]2(C)CCCC(C)(C)CN(C)C(=O)CCc3c(c(F)cc4[nH]ccc34)Oc3ccnc(c3)-c3nc2nn3C)c1)C(=O)O` [Compound 118, (2S)-3-[3-[(6R)-23-fluoro-3,6,10,10,12-pentamethyl-13-oxo-25-oxa-3,4,12,20,29,31-hexazapentacyclo[24.3.1.12,5.016,24.017,21]hentriaconta-1(30),2(31),4,16,18,21,23,26,28-nonaen-6-yl]phenyl]-2-methyl-propanoic acid]: the “DSLS (ΔTagg)” value in data set [2] is “C (a value greater than 10 °C and less than or equal to 25 °C is marked “C”)”. In addition, the “TECC (test agent AUC divided by VX-809 AUC)” value in data set [3] is “B (a value between 3 and 6 is marked “B”)”. As for `C[C@H](Cc1cccc([C@@]2(C)CCCC(C)(C)CN(C)C(=O)CCc3c(c(F)cc4[nH]ccc34)Oc3ccnc(c3)-c3nc2nn3C)c1)C(=O)O` [Compound 119, (2R)-3-[3-[(6R)-23-fluoro-3,6,10,10,12-pentamethyl-13-oxo-25-oxa-3,4,12,20,29,31-hexazapentacyclo[24.3.1.12,5.016,24.017,21]hentriaconta-1(30),2(31),4,16,18,21,23,26,28-nonaen-6-yl]phenyl]-2-methyl-propanoic acid], the “DSLS (ΔTagg)” value in data set [2] was “B (a value above 5 °C and less than or equal to 10 °C is marked “B”)”. The “TECC (test agent AUC divided by VX-809 AUC)” value in data set [3] is “B (a value between 3 and 6 is marked “B”)”. As for `CN1CC(C)(C)CCC[C@](C)(c2cccc(CC(C)(C)C(=O)O)c2)c2nc(n(C)n2)-c2cc(ccn2)Oc2c(F)cc3[nH]ccc3c2CCC1=O` [Compound 120, 3-[3-[(6R)-23-fluoro-3,6,10,10,12-pentamethyl-13-oxo-25-oxa-3,4,12,20,29,31-hexazapentacyclo[24.3.1.12,5.016,24.017,21]hentriaconta-1(30),2(31),4,16,18,21,23,26,28-nonaen-6-yl]phenyl]-2,2-dimethyl-propanoic acid], the “DSLS (ΔTagg)” value in data set [2] was “B (a value above 5 °C and less than or equal to 10 °C is marked “B”)”. Further, the “TECC (test agent AUC divided by VX-809 AUC)” value in data set [3] is on record as “A (a TECC value less than 3 is marked “A”)”.

For `C[C@@H](Cc1cccc([C@@]2(C)CCCCC(C)(C)CN(C)C(=O)Cc3c(c(F)cc4[nH]ccc34)Oc3ccnc(c3)-c3nc2nn3C)c1)C(=O)O` [Compound 121, (2S)-3-[3-[(6R)-23-fluoro-3,6,11,11,13-pentamethyl-14-oxo-25-oxa-3,4,13,20,29,31-hexazapentacyclo[24.3.1.12,5.016,24.017,21]hentriaconta-1(30),2(31),4,16,18,21,23,26,28-nonaen-6-yl]phenyl]-2-methyl-propanoic acid], the “DSLS (ΔTagg)” value in data set [2] was “C (a value greater than 10 °C and less than or equal to 25 °C is marked “C”)”. Moreover, the “TECC (test agent AUC divided by VX-809 AUC)” value in data set [3] was “A (a TECC value less than 3 is marked “A”)”. Regarding `C[C@H](Cc1cccc([C@@]2(C)CCCCC(C)(C)CN(C)C(=O)Cc3c(c(F)cc4[nH]ccc34)Oc3ccnc(c3)-c3nc2nn3C)c1)C(=O)O` [Compound 122, (2R)-3-[3-[(6R)-23-fluoro-3,6,11,11,13-pentamethyl-14-oxo-25-oxa-3,4,13,20,29,31-hexazapentacyclo[24.3.1.12,5.016,24.017,21]hentriaconta-1(30),2(31),4,16,18,21,23,26,28-nonaen-6-yl]phenyl]-2-methyl-propanoic acid], in data set [2], the “DSLS (ΔTagg)” value was “B (a value above 5 °C and less than or equal to 10 °C is marked “B”)”. Further, the “TECC (test agent AUC divided by VX-809 AUC)” value in data set [3] is recorded as “A (a TECC value less than 3 is marked “A”)”. Consider `CN1CC(C)(C)CCCC[C@](C)(c2cccc(CCC(=O)O)c2)c2nc(n(C)n2)-c2cc(ccn2)Oc2c(F)cc3[nH]ccc3c2CC1=O` [Compound 123, 3-[3-[(6R)-23-Fluoro-3,6,11,11,13-pentamethyl-14-oxo-25-oxa-3,4,13,20,29,31-hexazapentacyclo[24.3.1.12,5.016,24.017,21]hentriaconta-1(30),2(31),4,16,18,21,23,26,28-nonaen-6-yl]phenyl]propanoic acid], for which the “DSLS (ΔTagg)” value in data set [2] is “C (a value greater than 10 °C and less than or equal to 25 °C is marked “C”)”. In addition, the “TECC (test agent AUC divided by VX-809 AUC)” value in data set [3] was “A (a TECC value less than 3 is marked “A”)”.

Regarding `CN1CC(C)(C)CCCC[C@](C)(c2cccc(CC(C)(C)C(=O)O)c2)c2nc(n(C)n2)-c2cc(ccn2)Oc2c(F)cc3[nH]ccc3c2CC1=O` [Compound 124, 3-[3-[(6R)-23-fluoro-3,6,11,11,13-pentamethyl-14-oxo-25-oxa-3,4,13,20,29,31-hexazapentacyclo[24.3.1.12,5.016,24.017,21]hentriaconta-1(30),2(31),4,16,18,21,23,26,28-nonaen-6-yl]phenyl]-2,2-dimethyl-propanoic acid], the “DSLS (ΔTagg)” value in data set [2] was “A (an ΔTagg value less than or equal to 5 °C is marked “A”)”. For the same compound, the “TECC (test agent AUC divided by VX-809 AUC)” value in data set [3] is “A (a TECC value less than 3 is marked “A”)”.
